Measurements taken from patent US20140249139A1, “Quinazoline Derivatives” (NOVARTIS AG, priority 2011, published 2014).

How the values were obtained:
[1] = target: T1, PI3K alpha (Homo sapiens, UniProt P42336); assay: Enzymatic PI3K alpha isoform inhibition (lipid kinase activity, Kinase-Glo); type: biochemical; conditions: enzymatic assay
T1 construct: for the p110-a subunit (with a deletion of the first 20 amino acids) are generated; His tag (C); made in house; host or cells: baculovirus BV1075; Tn5 (Trichoplusia ni) or TiniPro insect cells
T1 sequence (P42336 with tags, fused parts or gaps limits assumed, species assumed): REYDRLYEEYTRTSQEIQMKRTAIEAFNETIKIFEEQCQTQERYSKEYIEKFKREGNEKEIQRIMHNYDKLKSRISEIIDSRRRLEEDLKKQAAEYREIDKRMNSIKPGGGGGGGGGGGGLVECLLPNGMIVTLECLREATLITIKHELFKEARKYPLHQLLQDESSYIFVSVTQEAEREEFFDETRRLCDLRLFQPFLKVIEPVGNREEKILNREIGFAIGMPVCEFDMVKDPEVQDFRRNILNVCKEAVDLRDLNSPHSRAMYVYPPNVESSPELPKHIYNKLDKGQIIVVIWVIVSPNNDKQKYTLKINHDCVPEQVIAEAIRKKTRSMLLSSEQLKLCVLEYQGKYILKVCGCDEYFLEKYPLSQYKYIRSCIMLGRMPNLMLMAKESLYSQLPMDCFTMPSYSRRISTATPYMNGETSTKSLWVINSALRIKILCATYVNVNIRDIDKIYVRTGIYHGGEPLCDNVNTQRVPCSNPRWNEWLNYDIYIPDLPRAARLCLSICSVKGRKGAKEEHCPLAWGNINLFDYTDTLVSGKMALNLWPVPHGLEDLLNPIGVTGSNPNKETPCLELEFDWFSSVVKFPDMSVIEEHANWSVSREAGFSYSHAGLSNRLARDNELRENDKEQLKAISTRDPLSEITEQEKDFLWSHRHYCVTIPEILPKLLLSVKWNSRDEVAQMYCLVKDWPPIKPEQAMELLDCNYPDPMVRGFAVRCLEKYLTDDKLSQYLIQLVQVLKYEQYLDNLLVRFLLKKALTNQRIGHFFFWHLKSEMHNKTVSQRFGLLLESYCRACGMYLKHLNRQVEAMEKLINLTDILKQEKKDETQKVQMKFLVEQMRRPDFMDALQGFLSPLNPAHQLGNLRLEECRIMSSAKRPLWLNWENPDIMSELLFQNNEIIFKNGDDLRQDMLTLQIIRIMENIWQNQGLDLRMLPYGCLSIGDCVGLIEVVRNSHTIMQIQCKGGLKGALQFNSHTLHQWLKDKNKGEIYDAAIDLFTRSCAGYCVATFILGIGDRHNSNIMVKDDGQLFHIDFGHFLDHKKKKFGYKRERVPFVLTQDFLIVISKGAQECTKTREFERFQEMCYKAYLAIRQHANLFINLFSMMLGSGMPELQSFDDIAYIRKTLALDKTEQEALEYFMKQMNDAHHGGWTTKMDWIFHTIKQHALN
Experimental: (§1) The components of the assay are added per well as follows:
(§2) IC50 is determined by a four parameter curve fitting routine that comes along with “excel fit”.
(§3) Yet alternatively, for an ATP depletion assay, compounds of the formula I to be tested are dissolved in DMSO and directly distributed into a white 384-well plate at 0.5 μl per well. To start the reaction, 10 μl of 10 nM PI3 kinase and 5 μg/ml 1-alpha-phosphatidylinositol (PI) are added into each well followed by 10 μl of 2 μM ATP. The reaction is performed until approx 50% of the ATP is depleted, and then stopped by the addition of 20 μl of Kinase-Glo solution (Promega Corp., Madison, Wis., USA). The stopped reaction is incubated for 5 minutes and the remaining ATP is then detected via luminescence. IC50 values are then determined.

[2] = target: T2, PI3K delta (Homo sapiens, UniProt O00329); assay: Enzymatic PI3K delta isoform inhibition (lipid kinase activity, Kinase-Glo); type: biochemical; conditions: enzymatic assay
T2 construct: for the full-length p110-d subunit are generated and fused by overlapping PCR; His tag (C); made in house; host or cells: baculovirus BV1060; Tn5 (Trichoplusia ni) or TiniPro insect cells
T2 sequence (O00329 with tags, fused parts or gaps limits assumed, species assumed): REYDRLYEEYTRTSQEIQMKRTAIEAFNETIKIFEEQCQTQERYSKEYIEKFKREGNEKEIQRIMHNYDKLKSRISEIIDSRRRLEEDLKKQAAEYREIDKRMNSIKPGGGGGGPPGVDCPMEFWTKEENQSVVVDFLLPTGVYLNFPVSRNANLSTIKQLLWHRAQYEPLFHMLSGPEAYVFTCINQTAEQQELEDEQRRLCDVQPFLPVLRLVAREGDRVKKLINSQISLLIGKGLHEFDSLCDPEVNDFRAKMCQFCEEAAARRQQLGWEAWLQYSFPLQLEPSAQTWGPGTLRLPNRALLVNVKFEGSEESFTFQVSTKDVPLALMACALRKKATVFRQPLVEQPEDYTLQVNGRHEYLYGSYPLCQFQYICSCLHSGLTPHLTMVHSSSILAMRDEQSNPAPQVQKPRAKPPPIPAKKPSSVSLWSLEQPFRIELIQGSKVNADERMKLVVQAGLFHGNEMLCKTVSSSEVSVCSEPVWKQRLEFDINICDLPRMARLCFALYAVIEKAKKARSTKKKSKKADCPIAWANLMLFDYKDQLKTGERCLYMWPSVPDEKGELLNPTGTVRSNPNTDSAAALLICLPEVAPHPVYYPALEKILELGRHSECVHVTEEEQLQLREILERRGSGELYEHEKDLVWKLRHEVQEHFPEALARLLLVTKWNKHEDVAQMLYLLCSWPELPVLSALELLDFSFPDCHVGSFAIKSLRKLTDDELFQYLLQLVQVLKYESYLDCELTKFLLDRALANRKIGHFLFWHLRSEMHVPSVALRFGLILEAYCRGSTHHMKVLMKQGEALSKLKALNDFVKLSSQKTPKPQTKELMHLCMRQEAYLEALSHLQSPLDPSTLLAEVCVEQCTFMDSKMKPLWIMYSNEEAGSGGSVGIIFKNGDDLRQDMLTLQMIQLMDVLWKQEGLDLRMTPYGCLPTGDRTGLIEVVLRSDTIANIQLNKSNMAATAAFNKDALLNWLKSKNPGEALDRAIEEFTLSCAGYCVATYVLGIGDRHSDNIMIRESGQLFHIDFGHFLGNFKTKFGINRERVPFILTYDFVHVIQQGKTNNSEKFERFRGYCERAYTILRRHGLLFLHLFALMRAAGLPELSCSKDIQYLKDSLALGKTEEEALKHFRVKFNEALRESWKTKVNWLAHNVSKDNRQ
Experimental: as §1, §2, §3

Structure (SMILES)	IC50 [1] [nM]	IC50 [2] [nM]
COc1ccc(-c2ccc3ncnc(-c4cccc(C(=O)N5CCNC(C)(C)C5)c4)c3c2)cn1 [Example 88, (3,3-Dimethyl-piperazin-1-yl)-{3-[6-(6-methoxy-pyridin-3-yl)-quinazolin-4-yl]-phenyl}-methanone]	100	2.67
COc1ccc(-c2ccc3ncnc(-c4cc(C(=O)N5CCN(C(C)=O)CC5)cc(C(F)(F)F)c4)c3c2)cn1 [Example 101, 1-(4-{3-[6-(6-Methoxy-pyridin-3-yl)-quinazolin-4-yl]-5-trifluoromethyl-benzoyl}-piperazin-1-yl)-ethanone]	1270	16
COc1ccc(-c2ccc3ncnc(-c4cc(C)cc(C(=O)N5CCN(C(C)=O)CC5)c4)c3c2)cn1 [Example 108, 1-(4-{3-[6-(6-Methoxy-pyridin-3-yl)-quinazolin-4-yl]-5-methyl-benzoyl}-piperazin-1-yl)-ethanone]	158	7
COc1ccc(-c2ccc3ncnc(-c4cccc(C(=O)N5CCC(O)CC5)c4)c3c2)cn1 [Example 94, (4-Hydroxy-piperidin-1-yl)-{3-[6-(6-methoxy-pyridin-3-yl)-quinazolin-4-yl]-phenyl}-methanone]	174	6
COc1ncc(-c2ccc3ncnc(-c4cccc(C(=O)N5CCS(=O)(=O)CC5)c4)c3c2)cc1C#N [Example 28]	418	9
COc1ccc(-c2ccc3ncnc(-c4cncc(C(=O)N5CCN(C(C)=O)CC5)c4)c3c2)cn1 [Example 52]	189	7.5
COc1ncc(-c2ccc3ncnc(-c4cncc(C(=O)N5CCN(C)CC5)c4)c3c2)cc1C#N [Example 56]	542	11
COc1ncc(-c2ccc3ncnc(-c4cncc(C(=O)N5CCN(C(C)=O)CC5)c4)c3c2)cc1C#N [Example 53]	472	7
COc1ccc(-c2ccc3ncnc(-c4cncc(C(=O)N5CC(C)NC(C)C5)c4)c3c2)cc1C(F)(F)F (stereo not drawn) [Example 80, (3,5-Dimethyl-piperazin-1-yl)-{5-[6-(4-methoxy-3-trifluoromethyl-phenyl)-quinazolin-4-yl]-pyridin-3-yl}-methanone]	717	10.5
COc1ccc(-c2ccc3ncnc(-c4cccc(C(=O)N5CC(C)NC(C)C5)c4)c3c2)cn1 (stereo not drawn) [Example 90, (3,5-Dimethyl-piperazin-1-yl)-{3-[6-(6-methoxy-pyridin-3-yl)-quinazolin-4-yl]-phenyl}-methanone]	181	5.75
COc1ccc(-c2ccc3ncnc(-c4cccc(C(=O)N5C[C@@H]6C[C@H]5CN6)c4)c3c2)cc1C(F)(F)F [Example 39]	770	11.5
COc1ncc(-c2ccc3ncnc(-c4ccc(C)c(C(=O)N5CCN(C(C)=O)CC5)c4)c3c2)cn1 [Example 102, 1-(4-{5-[6-(2-Methoxy-pyrimidin-5-yl)-quinazolin-4-yl]-2-methyl-benzoyl}-piperazin-1-yl)-ethanone]	770	11
CN1CCN(C(=O)c2cccc(-c3ncnc4ccc(-c5cnc(N(C)C)nc5)cc34)c2)CC1 [Example 11]	1070	28
CCOc1ccc(-c2ccc3ncnc(-c4cccc(C(=O)N5CCN(C)C(C)(C)C5)c4)c3c2)cn1 [Example 27]	404	18.5
COc1ncc(-c2ccc3ncnc(-c4cccc(C(=O)N5CCN(C(C)=O)C(C)(C)C5)c4)c3c2)cc1C#N [Example 37]	426	4
COc1ccc(-c2ccc3ncnc(-c4cncc(C(=O)N5CCCN(C)CC5)c4)c3c2)cn1 [Example 76, {5-[6-(6-Methoxy-pyridin-3-yl)-quinazolin-4-yl]-pyridine-3-yl}-(4-methyl-[1,4]-diazepan-1-yl)-methanone]	578	23.5
COc1ncc(-c2ccc3ncnc(-c4cccc(C(=O)N5CCN(C(C)=O)CC5)c4)c3c2)cn1 [Example 4]	1160	9
COc1ccc(-c2ccc3ncnc(-c4cncc(C(=O)N5CCNC(C)(C)C5)c4)c3c2)cn1 [Example 79, (3,3-Dimethyl-piperazin-1-yl)-{5-[6-(6-methoxy-pyridin-3-yl)-quinazolin-4-yl]-pyridin-3-yl}-methanone]	360	10
COc1ccc(-c2ccc3ncnc(-c4ccc(C)c(C(=O)N5CCN(C)CC5)c4)c3c2)cn1 [Example 115, {5-[6-(6-Methoxy-pyridin-3-yl)-quinazolin-4-yl]-2-methyl-phenyl}-(4-methyl-piperazin-1-yl)-methanone]	888	42.5
CCOc1ccc(-c2ccc3ncnc(-c4cccc(C(=O)N5CCN(C)CC5)c4)c3c2)cn1 [Example 16]	695	12.5

Structure (SMILES)	IC50 [1] [nM]	IC50 [2] [nM]
CC1(C)CN(C(=O)c2cccc(-c3ncnc4ccc(-c5ccc(N)nc5)cc34)c2)CCO1 [Example 32]	174	7
CN1CCN(C(=O)c2cccc(-c3ncnc4ccc(-c5ccc(NS(C)(=O)=O)c(C(F)(F)F)c5)cc34)c2)CC1 [Example 48]	3800	47.5
COc1ncc(-c2ccc3ncnc(-c4ccnc(C(=O)N5CCN(C(C)=O)CC5)c4)c3c2)cn1 [Example 112, 1-(4-{4-[6-(2-Methoxy-pyrimidin-5-yl)-quinazolin-4-yl]-pyridine-2-carbonyl}-piperazin-1-yl)-ethanone]	2320	49
COc1ccc(-c2ccc3ncnc(-c4cccc(C(=O)N5CCN(C)C(C)(C)C5)c4)c3c2)cn1 [Example 89, {3-[6-(6-Methoxy-pyridin-3-yl)-quinazolin-4-yl]-phenyl}-(3,3,4-trimethyl-piperazin-1-yl)-methanone]	99	4
COc1ncc(-c2ccc3ncnc(-c4cccc(C(=O)N5CCN[C@H](C)C5)c4)c3c2)cc1C#N [Example 34, 2-Methoxy-5-{4-[3-((R)-3-methyl-piperazine-1-carbonyl)-phenyl]-quinazolin-6-yl}-nicotinonitrile]	488	22.5
COc1ccc(-c2ccc3ncnc(-c4ccc(C)c(C(=O)N5CCN(C(C)C)CC5)c4)c3c2)cn1 [Example 116, (4-Isopropyl-piperazin-1-yl)-{5-[6-(6-methoxy-pyridin-3-yl)-quinazolin-4-yl]-2-methyl-phenyl}-methanone]	306	14
COc1ccc(-c2ccc3ncnc(-c4cncc(C(=O)N5CCOC(C)(C)C5)c4)c3c2)cn1 [Example 67]	306	7
COc1ccc(-c2ccc3ncnc(-c4cccc(C(=O)N5CCN(C)C[C@@H]5C)c4)c3c2)cn1 [Example 99, ((S)-2,4-Dimethyl-piperazin-1-yl)-{3-[6-(6-methoxy-pyridin-3-yl)-quinazolin-4-yl]-phenyl}-methanone]	237	4.5
CN1CCN(C(=O)c2cncc(-c3ncnc4ccc(-c5cnc(N)nc5)cc34)c2)CC1 [Example 60]	657	19.5
COc1ncc(-c2ccc3ncnc(-c4cccc(C(=O)N5CCNCC5)c4)c3c2)cc1C#N [Example 35]	262	7
COc1ncc(-c2ccc3ncnc(-c4cncc(C(=O)N5CCS(=O)(=O)CC5)c4)c3c2)cc1C#N [Example 71]	550	8
COc1ncc(-c2ccc3ncnc(-c4cc(C(=O)N5CCN(C(C)=O)CC5)cc(C(F)(F)F)c4)c3c2)cc1C#N [Example 103, 5-{4-[3-(4-Acetyl-piperazine-1-carbonyl)-5-trifluoromethyl-phenyl]-quinazolin-6-yl}-2-methoxy-nicotinonitrile]	2120	8
CCN1CCN(C(=O)c2cccc(-c3ncnc4ccc(-c5ccc(OC)nc5)cc34)c2)CC1 [Example 86, (4-Ethyl-piperazin-1-yl)-{3-[6-(6-methoxy-pyridin-3-yl)-quinazolin-4-yl]-phenyl}-methanone]	380	15.5
COc1ncc(-c2ccc3ncnc(-c4cccc(C(=O)N5CCOCC5)c4)c3c2)cc1C#N [Example 30]	387	6.67
CCOc1ncc(-c2ccc3ncnc(-c4cccc(C(=O)N5CCN(C(C)=O)CC5)c4)c3c2)cn1 [Example 5]	1320	8.5
COc1ccc(-c2ccc3ncnc(-c4cncc(C(=O)N5CCNC[C@@H]5C)c4)c3c2)cc1C(F)(F)F [Example 84, {5-[6-(4-Methoxy-3-trifluoromethyl-phenyl)-quinazolin-4-yl]-pyridin-3-yl}-((S)-2-methyl-piperazin-1-yl)-methanone]	558	9.5
CC1(C)CN(C(=O)c2cncc(-c3ncnc4ccc(-c5cncc(S(C)(=O)=O)c5)cc34)c2)CCO1 [Example 64]	583	11
COc1ccc(-c2ccc3ncnc(-c4cccc(C(=O)N5CCN(C)CC5)c4)c3c2)cc1C#N [Example 45]	1200	36.5
COc1ncc(-c2ccc3ncnc(-c4cccc(C(=O)N5C[C@@H]6C[C@H]5CN6C)c4)c3c2)cc1C(F)(F)F [Example 29]	75	3
